Assays:
CDK8/CycC = molecular target: T1, CDK8/CycC (Homo sapiens, UniProt P49336); assay: CDK8 inhibitory activity (TR-FRET, Kinase Tracer-236 displacement); assay type: binding; settings: 1 μM of the test compound; read-out: Percent inhibition of CDK8 activity (%)
T1 construct: purchased Carna Biosciences
Procedure, shortened: (§1)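 Binding assay measuring displacement of Kinase Tracer-236 (60 nM in the added mix) by compound, using Eu-cryptate anti-GST antibody with CDK8/CycC (84 ng/mL) or CDC2L6/CycC (87 ng/mL) solutions. After 1 h at room temperature, TR-FRET read at 615 and 665 nm (excitation 320 nm).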

CDK19 (CDC2L6/CycC) = molecular target: T2, CDK19 (CDC2L6/CycC) (Homo sapiens, UniProt Q9BWU1); assay: CDK19 inhibitory activity (TR-FRET, Kinase Tracer-236 displacement); assay type: binding; settings: 1 μM of the test compound; read-out: Percent inhibition of CDK19 activity (%)
T2 construct: purchased Carna Biosciences
Procedure, shortened: as §1

[1] = test system: human multiple myeloma RPMI8226 cells; assay: Inhibitory activity against human multiple myeloma RPMI8226 cell growth (CellTiter-Glo); assay type: cell-based; settings: Homo sapiens, RPMI-8226, 192 h, 1 μM of the test compound, cultured for 8 days; read-out: Percent inhibition of RPMI8226 cell growth (%)
Procedure, shortened: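 RPMI8226 cells (300/well) cultured 1 day at 37 °C, 5% CO2, then given compound at 1 μM for 8 days. ATP luminescence (CellTiter-Glo) read; percent inhibition relative to 0.1% DMSO wells.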

T2 sequence (Q9BWU1 whole entry): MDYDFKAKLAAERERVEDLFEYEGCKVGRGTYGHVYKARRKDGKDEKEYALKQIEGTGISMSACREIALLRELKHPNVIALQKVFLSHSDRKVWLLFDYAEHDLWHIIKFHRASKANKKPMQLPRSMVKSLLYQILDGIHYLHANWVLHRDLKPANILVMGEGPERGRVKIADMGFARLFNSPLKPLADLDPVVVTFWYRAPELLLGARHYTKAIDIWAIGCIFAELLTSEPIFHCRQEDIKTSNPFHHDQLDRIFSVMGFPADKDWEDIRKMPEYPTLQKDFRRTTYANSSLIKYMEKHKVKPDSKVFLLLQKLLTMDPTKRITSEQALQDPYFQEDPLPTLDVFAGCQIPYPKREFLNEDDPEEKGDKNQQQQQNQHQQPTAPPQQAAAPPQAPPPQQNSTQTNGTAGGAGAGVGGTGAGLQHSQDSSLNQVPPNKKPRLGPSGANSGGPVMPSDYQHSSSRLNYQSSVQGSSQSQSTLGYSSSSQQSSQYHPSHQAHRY
T2 sequence (P24863 whole entry partner): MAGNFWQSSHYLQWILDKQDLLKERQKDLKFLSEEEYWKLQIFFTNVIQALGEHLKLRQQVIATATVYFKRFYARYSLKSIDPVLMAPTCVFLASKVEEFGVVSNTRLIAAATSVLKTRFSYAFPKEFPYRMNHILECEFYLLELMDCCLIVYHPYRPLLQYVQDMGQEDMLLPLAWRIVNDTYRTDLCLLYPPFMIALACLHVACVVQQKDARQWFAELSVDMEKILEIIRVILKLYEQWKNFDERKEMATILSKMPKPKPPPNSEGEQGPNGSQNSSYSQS
T1 sequence (P49336 whole entry): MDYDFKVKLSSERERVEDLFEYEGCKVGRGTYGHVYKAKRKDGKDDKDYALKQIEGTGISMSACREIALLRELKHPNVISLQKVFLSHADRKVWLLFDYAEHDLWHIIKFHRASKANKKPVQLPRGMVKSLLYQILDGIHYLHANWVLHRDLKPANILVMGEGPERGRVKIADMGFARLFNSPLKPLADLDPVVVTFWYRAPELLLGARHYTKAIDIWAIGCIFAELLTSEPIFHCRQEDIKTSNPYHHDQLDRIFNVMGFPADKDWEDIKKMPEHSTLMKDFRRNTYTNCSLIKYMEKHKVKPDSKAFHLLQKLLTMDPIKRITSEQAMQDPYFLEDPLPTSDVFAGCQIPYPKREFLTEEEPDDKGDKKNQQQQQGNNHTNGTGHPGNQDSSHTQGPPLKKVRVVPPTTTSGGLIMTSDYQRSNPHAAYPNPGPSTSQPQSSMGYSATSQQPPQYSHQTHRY
T1 sequence (P24863 whole entry partner): as the sequence (P24863 whole entry partner) above

| SMILES | inhibition at 1 µM (CDK8/CycC) [%] | inhibition at 1 µM (CDK19 (CDC2L6/CycC)) [%] | inhibition at 1 µM [1] [%] |
| --- | --- | --- | --- |
| O=C(/C=C/c1cnccc1-c1cnn(C2CC2)c1)Nc1ccc2c(c1)CN(C(=O)C(F)(F)F)CC2 [Example 248, (2E)-3-(4-(1-Cyclopropyl-1H-pyrazol-4-yl)pyridin-3-yl)-N-(2-(trifluoroacetyl)-1,2,3,4-tetrahydroisoquinolin-7-yl)acrylamide] | 98 | 98 | 57 |
| Cn1cc(-c2ccncc2/C=C/C(=O)Nc2ccc(CN3CCOCC3)c(F)c2)cn1 [Example 249, (2E)-N-(3-fluoro-4-(morpholin-4-ylmethyl)phenyl)-3-(4-(1-methyl-1H-pyrazol-4-yl)pyridin-3-yl)acrylamide] | 99 | 97 | 62 |
| COc1ncc(-c2ccncc2/C=C/C(=O)Nc2ccc(CN3CCOCC3)cc2F)s1 [Example 250, (2E)-N-(2-Fluoro-4-(morpholin-4-ylmethyl)phenyl)-3-(4-(2-methoxy-1,3-thiazol-5-yl)pyridin-3-yl)acrylamide] | 99 | 96 | 63 |
| Cn1ccc2cc(NC(=O)/C=C/c3cnccc3-c3cnn(C4CC4)c3)ccc21 [Example 251, (2E)-3-(4-(1-Cyclopropyl-1H-pyrazol-4-yl)pyridin-3-yl)-N-(1-methyl-1H-indol-5-yl)acrylamide] | 100 | 97 | 61 |
| CCN1CCc2cc(NC(=O)/C=C/c3cnccc3-c3cnn(C)c3)ccc2C1 [Example 256, (2E)-N-(2-ethyl-1,2,3,4-tetrahydroisoquinolin-6-yl)-3-(4-(1-methyl-1H-pyrazol-4-yl)pyridin-3-yl)acrylamide] | 96 | 95 | 58 |
| O=C(/C=C/c1cnccc1-c1cnn(C2CCC2)c1)Nc1ccc(CN2CCOCC2)cc1 [Example 258, (2E)-3-(4-(1-cyclobutyl-1H-pyrazol-4-yl)pyridin-3-yl)-N-(4-(morpholin-4-ylmethyl)phenyl)acrylamide] | 96 | 96 | 54 |
| Cn1cc(-c2c(F)cncc2/C=C/C(=O)Nc2ccc(CN3CCOCC3)cc2F)cn1 [Example 260, (2E)-3-(5-Fluoro-4-(1-methyl-1H-pyrazol-4-yl)pyridin-3-yl)-N-(2-fluoro-4-(morpholin-4-ylmethyl)phenyl)acrylamide] | 98 | 99 | 53 |
| O=C(/C=C/c1cnccc1-c1cnn(C2CC2)c1)Nc1ccc2c(ccn2CC(F)(F)F)c1 [Example 266, (2E)-3-(4-(1-Cyclopropyl-1H-pyrazol-4-yl)pyridin-3-yl)-N-(1-(2,2,2-trifluoroethyl)-1H-indol-5-yl)acrylamide] | 99 | 98 | 57 |
| COC(C)c1ccc(NC(=O)/C=C/c2cnccc2-c2cnn(C3CC3)c2)cc1 (stereo not drawn) [Example 271, (2E)-3-(4-(1-cyclopropyl-1H-pyrazol-4-yl)pyridin-3-yl)-N-(4-(1-methoxyethyl)phenyl) acrylamide] | 102 | 93 | 62 |
| COC(C)(C)Cc1ccc(NC(=O)/C=C/c2cnccc2-c2cnn(C3CC3)c2)cc1 [Example 272, (2E)-3-(4-(1-cyclopropyl-1H-pyrazol-4-yl)pyridin-3-yl)-N-(4-(2-methoxy-2-methylpropyl)phenyl)acrylamide] | 101 | 94 | 67 |
| Cn1cc(-c2ccncc2/C=C/C(=O)Nc2ccc(Cn3cccn3)cc2)cn1 [Example 274, (2E)-3-(4-(1-methyl-1H-pyrazol-4-yl)pyridin-3-yl)-N-(4-(1H-pyrazol-1-ylmethyl)phenyl)acrylamide] | 102 | 97 | 53 |
| Cn1cc(-c2ccncc2/C=C/C(=O)Nc2ccc(Cn3ccnc3)cc2)cn1 [Example 275, (2E)-N-(4-(1H-Imidazol-1-ylmethyl)phenyl)-3-(4-(1-methyl-1H-pyrazol-4-yl)pyridin-3-yl)acrylamide] | 102 | 98 | 64 |
| Cn1cc(-c2ccncc2/C=C/C(=O)Nc2ccc(CC(F)(F)F)cc2)cn1 [Example 276, (2E)-3-(4-(1-methyl-1H-pyrazol-4-yl)pyridin-3-yl)-N-(4-(2,2,2-trifluoroethyl)phenyl)acrylamide] | 99 | 92 | 60 |
| Cn1cc(-c2ccncc2/C=C/C(=O)Nc2ccc3c(c2)CCN(CC(F)(F)F)C3)cn1 [Example 277, (2E)-3-(4-(1-methyl-1H-pyrazol-4-yl)pyridin-3-yl)-N′-(2-(2,2,2-trifluoroethyl)-1,2,3,4-tetrahydroisoquinolin-6-yl)acrylamide] | 98 | 101 | 65 |
| Cn1cc(-c2ccncc2/C=C/C(=O)Nc2ccc3c(c2)CCN3)cn1 [Example 280, (2E)-N-(2,3-dihydro-1H-indol-5-yl)-3-(4-(1-methyl-1H-pyrazol-4-yl)pyridin-3-yl)acrylamide] | 97 | 96 | 58 |

The next lines start with results.

| inhibition at 1 µM (CDK8/CycC) [%] | inhibition at 1 µM (CDK19 (CDC2L6/CycC)) [%] | SMILES | inhibition at 1 µM [1] [%] |
| --- | --- | --- | --- |
| 99 | 93 | CN(C)CCOc1ccc(NC(=O)/C=C/c2cnccc2-c2cnn(C)c2)cc1 [Example 252, (2E)-N-(4-(2-(dimethylamino)ethoxy)phenyl)-3-(4-(1-methyl-1H-pyrazol-4-yl)pyridin-3-yl)acrylamide] | 60 |
| 98 | 97 | COCCOc1ccc(NC(=O)/C=C/c2cnccc2-c2cnn(C)c2)cc1 [Example 253, (2E)-N-(4-(2-methoxyethoxy)phenyl)-3-(4-(1-methyl-1H-pyrazol-4-yl)pyridin-3-yl)acrylamide] | 62 |
| 99 | 95 | CCN1CCc2ccc(NC(=O)/C=C/c3cnccc3-c3cnn(C)c3)cc2C1 [Example 257, (2E)-N-(2-ethyl-1,2,3,4-tetrahydroisoquinolin-7-yl)-3-(4-(1-methyl-1H-pyrazol-4-yl)pyridin-3-yl)acrylamide] | 56 |
| 97 | 93 | Cn1cc2cc(-c3ccncc3/C=C/C(=O)Nc3ccc(CN4CCOCC4)cc3)ccc2n1 [Example 261, (2E)-3-(4-(2-methyl-2H-indazol-5-yl)pyridin-3-yl)-N-(4-(morpholin-4-ylmethyl)phenyl)acrylamide] | 52 |
| 92 | 97 | Cn1cc(-c2ccc(NC(=O)/C=C/c3cnccc3-c3cnn(C4CC4)c3)cc2)cn1 [Example 281, (2E)-3-(4-(1-cyclopropyl-1H-pyrazol-4-yl)pyridin-3-yl)-N-(4-(1-methyl-1H-pyrazol-4-yl)phenyl)acrylamide] | 58 |
| 95 | 96 | O=C(/C=C/c1cnccc1-c1ccc2ncn(CC3CC3)c2c1)Nc1ccc(CN2CCOCC2)cc1 [Example 283, (2E)-3-(4-(1-(Cyclopropylmethyl)-1H-benzimidazol-6-yl)pyridin-3-yl)-N-(4-(morpholin-4-ylmethyl)phenyl)acrylamide] | 60 |

Reference: patent US9957251B2 (Takeda Pharmaceutical Company Limited, priority 2014, dated 2018)
